Measured values from article PMC3435407, “αA-Crystallin–Derived Mini-Chaperone Modulates Stability and Function of Cataract Causing αAG98R-Crystallin” (PLoS ONE, 2012).
Non-standard residues stand in square brackets, D forms with d. No end group written: not given here. *: point of attachment. Biotin = O=C1N[C@H]2[C@H](CS[C@H]2CCCCC(=O)*)N1; Bpa = N[C@@H](Cc1ccc(C(=O)c2ccccc2)cc1)C(=O)O

Experiments:
wild-type α-crystallin = conditions: modulator in 10- to 30-fold higher concentrations than α-crystallin; ref [39]–[42]; cited from earlier work
Source text: In those studies the modulator was used in 10- to 30-fold higher concentrations than the α-crystallin [39]–[42] and the conformational changes in α-crystallin in the presence of the modulator was considered to be responsible for the activity enhancement.

[1] = tested on: alcohol dehydrogenase (ADH); test: ADH aggregation assay, heat-denatured (chaperone-like activity); type: biochemical; conditions: peptide alone, 43°C
Method: (§1) Aggregation assay was performed in 1 ml 50 mM phosphate buffer containing 150 mM NaCl and 100 mM EDTA at 43°C. The chaperone activity of Biotin-[…](Bpa)[…] as well as a Pro-substituted mini-chaperone ([…]) was also measured by ADH aggregation assay. The extent of aggregation was estimated by monitoring the light scattering at 360 nm using a Shimadzu UV-VIS spectrophotometer equipped with a temperature-controlled multi-cell transporter.
Similar to our earlier observation, αAG98R suppressed ADH aggregation during the early part of the 2 hr assay but the assay mixture started to scatter light after 60 min (Figure 5A).
Figure 5 Effect of the addition of αA-crystallin–derived mini-chaperone on the chaperone-like activity of αAG98R against ADH aggregation. […] The figures represent the typical data obtained multiple times with WT-αA-crystallin and stabilized αAG98R.

αAG98R [2] = molecular target: T1, αAG98R (Homo sapiens, UniProt P02489, G98R); test: Photo-crosslinking, SDS-PAGE and western blot; type: binding; conditions: for covalent association with αAG98R subunits: photolyzed, SDS-PAGE and western blot
T1 construct: the full-length human αA-crystallin cDNA cloned into pET-23d (+) vector; made in house; host or cells: E. coli BL21(DE3)pLysS
Method: (§2) Biotinyl-αA-mini-chaperone-Bpa peptide (200 µg) was incubated with 200 µg of αAG98R crystallin in buffer, pH 7.2, at 37°C for 1 hr. Subsequently, the sample was filtered in a Microcon 10 kDa cut of filter (Millipore, Bedford, MA) to remove free peptides. The sample was photolyzed for 30 min, at 4°C, using a UV lamp (365 nm) held at a distance of 7 cm from the sample. The photolyzed sample was desalted using C18 zip tip spin columns (Thermo Fisher Scientific, Rockford, IL), as per the manufacturer's protocol, and the bound protein was eluted in 70% acetonitrile. […] The UV-photolyzed sample was subjected to SDS-PAGE and western blot analysis using antibody against biotin.
Figure 6 SDS-PAGE analysis of αAG98R cross-linked with biotinylated Bpa-mini-αA. Incubation, photolysis and SDS-PAGE (lanes 1–3), western blot (lanes 4 and 5) analysis were performed as described under methods. Lane 1, photolysed αAG98R; lane 2, αAG98R incubated with biotinyl-Bpa mini-αA and photolyzed; lane 3 mol wt markers. […] This band was absent in non-photolyzed samples (data not shown).Lanes 4 and 5 western blot of lanes 1 and 2 respectively. […] The figure is representative of 3 independent experiments.

αAG98R [3] = molecular target: T1, αAG98R; test: Photo-crosslinking, MALDI-TOF/TOF MS; type: binding; conditions: photolyzed; restated in the discussion
Method: as §2
Figure 7 MALDI-TOF MS spectrum of αAG98R photolyzed after incubation with or without biotinyl-Bpa-mini-αA-crystallin. A, αAG98R after photolysis; B, αAG98R photolyzed after incubation with biotinyl-Bpa mini-αA. The αAG98R-Bpa mini-αA complex with m/z 22592 is indicated by an arrow. Mass spectrometric analysis confirms the 1∶1 interaction of mini-chaperone with αAG98R monomer. The figure is representative of 3 independent experiments.

αAG98R [4] = molecular target: T1, αAG98R; test: Recovery of soluble αAG98R after incubation at 43°C (gel filtration, TSK G5000PWXL); type: biochemical; conditions: 75 µg αAG98R
Method: (§3) Samples were injected on to a TSK G5000PWXL (Tosoh Bioscience, Montgomeryville, PA) size-exclusion column equilibrated with 50 mM sodium phosphate buffer containing 150 mM NaCl (pH 7.2). The flow rate was set to 0.75 ml/min. The column was attached to a HPLC system connected with UV and refractive index detectors and coupled to a static multi-angle laser light scattering (DAWN-EOS) and dynamic quasi-elastic light scattering detectors (Wyatt Technology, Santa Barbara, CA). The molar mass (Mw), hydrodynamic radius (Rh) and polydispersity index (PDI) were determined using ASTRA (5.3.2) software developed by Wyatt Technology.
(§4) We know from previous studies thatαA-mini-chaperone suppresses the aggregation and precipitation of denaturing proteins, [29], [30]. […] The samples were centrifuged to remove any precipitate formed during incubation, and the supernatant was analyzed by TSKG5000 PWXL gel filtration column connected to a multi-angle laser light scattering (DAWN-EOS) and dynamic quasi-elastic light scattering detectors. […] The first peak corresponded to the oligomeric form of αAG98R, whereas the second peak represented dissociated subunits of the mutant protein. […] The hydrodynamic radius (Rh) of the stabilized αAG98R increased from 15.3 nm to 16.4 nm, consistent with increase in molar mass.

αAG98R [5] = molecular target: T1, αAG98R; test: αAG98R recovery with different amounts of mini-chaperone (43°C, 30 min); type: binding; conditions: 1∶2 ratio (mol/mol) of αAG98R to mini-αA, 10 µM αAG98R
[6] = tested on: αAG98R / wild-type αA-crystallin; test: Far-UV CD thermal denaturation (218 nm); type: physicochemical, human; conditions: 100 µg/400 µl, 10 mM phosphate pH 7.2, listed as αA-crystallin mini-chaperone = αAG98R incubated with it
Method: Circular dichroism (CD) spectropolarimeter, J815 (Jasco, Easton, MD), equipped with a temperature control system, was employed to record CD spectra. Far-UV CD measurements were carried out over the wavelength range of 190 to 250 nm with bandwidth 0.5 nm, scan speed 10 nm/min using 0.1-cm path length cuvettes. Protein samples were prepared in 10 mM sodium phosphate buffer (pH 7.2). Spectra are the average of five scans. Buffer signal was subtracted prior to reporting the data. Thermal denaturation data were collected from 25°C to 45°C, with protein concentration of 100 µg/400 µl. Thermal denaturation experiments were performed with a heating rate of 1°C/min, and CD signals at 218 nm were used to determine transition midpoints. Near-UV CD spectra were recorded using a protein sample of 1.5 mg/ml in the buffer used for far-UV studies.
Proteins, 100 µg, were prepared in 400 µl of10 mM phosphate buffer, pH 7.2, and the sample temperatures were slowly raised from 25 to 48°C in 2°C steps, equilibrated for 5 min at each temperature prior to far-UV CD measurement. Molar ellipticity changes at 218 nm were plotted to determine relative stability of samples. […] The spectra were recorded using a protein sample of 1.5 mg/ml. The profile shown is the average of 5 scans.

[7] = tested on: αAG98R / wild-type αA-crystallin oligomer; test: Multi-angle/quasi-elastic light scattering of αA-crystallin oligomers; type: physicochemical, human; conditions: 43°C, wild-type protein
Method: as §3, §4

α-crystallin = tested on: α-crystallin; set-up: method as in 2 sources, one per row (each row's own in cited_ref): ref [43] = [43]; PMID 8549682; doi:10.1016/s0014-4835(05)80136-8; 43 Sharma KK , Ortwerth BJ ( 1995 ) Effect of cross-linking on the chaperone-like function of alpha crystallin . Exp Eye Res 61 : 413 – 421 . 8549682 10.1016/s0014-4835(05)80136-8 ||| ref [44] = [44]; PMID 15199188; doi:10.1073/pnas.0403532101; 44 Kantorow M , Hawse JR , Cowell TL , Benhamed S , Pizarro GO , et al ( 2004 ) Methionine sulfoxide reductase A is important for lens cell viability and resistance to oxidative stress . Proc Natl Aca; conditions: α-crystallin in water-insoluble fraction of lens proteins; ref [43]; cited from earlier work
αAG98R [8] = molecular target: T1, αAG98R; test: Thermal aggregation monitored by light scattering at 360 nm; type: biochemical; conditions: 750 µg αAG98R, 1.7∶1 (mol/mol) ratio, 90 min, representative of 3 experiments
Method: Light scattering was monitored at 360 nm for 90 min using a spectrophotometer. […] Because αAG98R is a structurally perturbed protein [20], [21], we hypothesize that the mini-chaperone interacted with mutant αAG98R and prevented aggregation and light scattering. […] The aggregation and precipitation of αAG98R also occurred at 37°C but at a slower rate. […] Nearly 80% of αAG98R was recovered when the incubation was carried out with 1∶2 ratio (mol/mol) of αAG98R to mini-αA-.
The protein samples (750 µg) were incubated in 1 ml PO4 buffer, pH 7.2 at 43°C and light scattering was continually monitored at 360 nm for 90 min in a spectrophotometer. […] The figure is representative of 3 independent experiments.

[9] = tested on: alcohol dehydrogenase (ADH); test: EDTA-induced ADH aggregation assay at 37°C; type: biochemical; conditions: 250 µg ADH, 50 µg peptide, representative of two experiments
Method: as §1
The EDTA-induced aggregation of ADH assay was performed at 37°C as described under methods. In each experiment 250 µg of ADH was used. […] The figure is representative of two independent experiments. (TIF) Click here for additional data file.

[10] = tested on: ADH, citrate synthase, insulin and α-lactalbumin; set-up: method as in PMID 10660525, PMID 11350603, PMID 11563692; conditions: ref [26], [29], [30]; cited from earlier work

T1 sequence (P02489 whole entry G98R): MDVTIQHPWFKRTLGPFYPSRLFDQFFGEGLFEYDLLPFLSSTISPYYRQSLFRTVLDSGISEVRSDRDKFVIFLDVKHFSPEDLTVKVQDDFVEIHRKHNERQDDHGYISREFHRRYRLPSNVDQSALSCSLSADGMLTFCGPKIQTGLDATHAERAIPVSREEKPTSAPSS

In the case of `N[C@@H](CCC(=O)N[C@@H](CS)C(=O)NCC(=O)O)C(=O)O` [glutathione], the “modulation of wild-type α-crystallin chaperone activity” value (shortened to “modulation”) (wild-type α-crystallin) is listed as “Modulation of wild-type α-crystallin chaperone activity”.
With “Biotin-DFVIFLDVKH[Bpa]SPEDLTVK [biotinyl-Bpa-mini-chaperone] [listing 1 of 2 here]” the “chaperone activity of Bpa peptide (heat-denatured ADH)” value [1] was “retained chaperone activity”, the “chaperone activity of Bpa peptide (heat-denatured ADH)” value ([1]; listed as biotin-DFVIFLDVKH(benzoylphenylalanine)SPEDLTVK) was “active in suppressing the aggregation of heat-denatured ADH” and the “binding stoichiometry (SDS-PAGE/western blot)” value (αAG98R [2]; photolyzed mixture) was “one peptide was incorporated into one subunit of αAG98R”.
With “Biotin-DFVIFLDVKH[Bpa]SPEDLTVK [biotinyl-Bpa-mini-chaperone] [listing 2 of 2 here]” the “Bpa-peptide incorporated into αAG98R subunit” value (αAG98R [3]) was “about 10%”, the “αAG98R photo-crosslinked (image analysis of stained gel)” value (αAG98R [2]; 200 µg peptide + 200 µg αAG98R, pH 7.2, 37°C, 1 hr, photolysis 365 nm 30 min 4°C, representative of 3 experiments) was “about 10%” and the “covalent association with αAG98R subunits” value (αAG98R [2]; representative of 3 experiments) was “covalent association of αA-mini-chaperone with αAG98R subunits was observed”. The “covalent association with αAG98R subunits” value (αAG98R [2]; representative of 3 experiments, listed as biotinyl-Bpa mini-αA) was “confirms the binding of a mini-chaperone to a subunit of αAG98R”.
For DFVIFLDVKHFSPEDLTVK [αA-mini-chaperone], the “mutant protein recovered in soluble form (percent)” value (αAG98R [4]; with or without 10 µg αA-mini-chaperone, 1 hr, listed as αAG98R = absence of mini-chaperone) was 79% and the “recovery of αAG98R” value (αAG98R [5]) was roughly 80%.
In the case of “wild-type αA-crystallin: recombinant wild-type human αA-crystallin expressed in E. coli”, the “temperature up to which / above which 218 nm ellipticity is stable / changes” value [6] is reported as 40 °C and the “oligomeric size and molar mass change upon incubation” value [7] is reported as “oligomeric size and molar mass did not change”.
In the case of `N=C(N)NN` [aminoguanidine], the “modulation” value (wild-type α-crystallin) is listed as “Modulation of wild-type α-crystallin chaperone activity”.
In the case of `O[C@@H](CS)[C@@H](O)CS` (racemic) [dithiothreitol (DTT), dithiothreitol], the “restoration of chaperone activity by DTT” value (α-crystallin) is given as “restores some of the lost chaperone activity”.
In the case of `N=C(N)NCCC[C@H](N)C(=O)O` [arginine], the “modulation” value (wild-type α-crystallin) is given as “Modulation of wild-type α-crystallin chaperone activity”.
In the case of `Nc1ncnc2c1ncn2[C@@H]1O[C@H](COP(=O)(O)OP(=O)(O)OP(=O)(O)O)[C@@H](O)[C@H]1O` [ATP], the “modulation” value (wild-type α-crystallin) is listed as “Modulation of wild-type α-crystallin chaperone activity”.
In the case of “DFVPFLDVKHFSPEDLTVK [Pro-substituted mini-chaperone]”, the “suppression of αAG98R aggregation, 43°C” value (αAG98R [8]) is reported as “failed to suppress precipitation of the mutant protein”, the “effect on monomeric peak / dissociation / precipitation of αAG98R” value (αAG98R [4]; gel filtration TSK G5000PWXL) is reported as “did not prevent the precipitation of αAG98R” and the “chaperone activity of Pro-substituted peptide (EDTA-induced ADH aggregation)” value [9] is reported as “no chaperone activity”. For the same compound, the “chaperone activity of Pro-substituted peptide (EDTA-induced ADH aggregation)” value ([9]; listed as αA-mini-chaperone (pro)) was “Pro-substitution abolishes the chaperone activity of mini-chaperone”.
In the case of “KFVIFLDVKHFSPEDLTVK [αA70-88, 19 amino acid peptide representing the chaperone site in αA-crystallin]”, the “suppression of aggregation of denaturing ADH, citrate synthase, insulin and α-lactalbumin; chaperone-like function” value [10] is given as “functions like a molecular chaperone”.
